According to patent publication US8242160B2, “Inhibitors of ubiquitin E1” (The United States of America, as represented by the …, priority 2005, dated 2012):
Where a SMILES comes first, the peptide text is derived from it. [ ]: non-standard residue; d: D form. The star is where a group is joined. Nle = CCCC[C@H](N)C(=O)O; Cbz = O=C(OCc1ccccc1)*

Experiments:
IκBα = experiment: TNFα-induced IκBα degradation in cells; format: cell-based
Nedd4 = experiment: In vitro autoubiquitination of HECT E3 Nedd4; format: biochemical
Experimental: It was then evaluated whether 4-[4-(5-nitro-furan-2-ylmethylene)-3,5-dioxo-pyrazolidin-1-yl]-benzoic acid methyl acid blocks autoubiquitination of both RING finger E3s (Mdm2) and HECT E3s (Nedd4) in vitro.
5 pmole per experimental point of bacterially expressed GST-Mdm2 (or GST-Nedd) is coupled to glutathione Sepharose (GS) for 30 minutes at room temperature with tumbling, followed by 3× wash with 50 mM Tris pH 7.5. Following this, 20 μl of 1× buffer is added (40 μl 10× reaction buffer*, 40 μl 10× PCK**, 320 μl dH2O). The test compound in DMSO is then added to the desired concentration with an equal volume of DMSO used as a control. Samples are incubated with shaking for 1 hr at 23° C. To carry out the reaction, a pre-made cocktail of Rabbit E1 (Calbiochem #6620700)/UbCH5B/^32P Ub cocktail (1 μl/0.5 μl/1 μl) is added followed by 15 minutes shaking at 30° C. The reaction is terminated by addition of 8 μl 4× reducing SDS-PAGE loading buffer. After dissociating proteins from the beads at 100° C. for 2 minutes, samples are resolved on 6% PAGE followed by exposure of the dried gel to phosphor screen. Note: ^32P Ub is derived from GST-Ub that has been engineered to include a PKA phosphorylation site. This fusion protein is purified on glutathione Sepharose, phosphorylated, following this, the ^32P Ub ubiquitin is cleaved and purified away from the thrombin.

cyclin E = experiment: Degradation of in vitro translated cyclin E in S-100 cytosolic extract; format: biochemical
Text: Cytosolic extracts from cells (S-100) contain all the components for ubiquitination and proteasomal degradation. To further evaluate 4-[4-(5-nitro-furan-2-ylmethylene)-3,5-dioxo-pyrazolidin-1-yl]-benzoic acid methyl acid, we made use of in vitro translated cyclin E, which is degraded in S-100 in a time-dependent manner (FIG. 3, upper panel, lanes 1-4).

CCCC[C@@H](C=O)NC(=O)[C@H](CC(C)C)NC(=O)[C@H](CC(C)C)NC(C)=O [ALLN, reference compound] (Ac-Leu-Leu-[Nle]-aldehyde)
TNFα-induced IκBα degradation (IκBα): prevents TNFα-induced IκBα degradation

O=c1nc2n(-c3cccc(Cl)c3)c3ccc([N+](=O)[O-])cc3cc-2c(=O)[nH]1 [98CO7, 10-(-3-chloro-phenyl)-7-nitro-10H-pyrimido[4,5-b]quinoline-2,4-dione, reference compound]
autoubiquitination of Nedd4 (Nedd4): only has very moderate effects

CC(C)C[C@@H](C=O)NC(=O)[C@H](CC(C)C)NC(=O)[C@H](CC(C)C)NC(=O)OCc1ccccc1 [MG132, reference compound] (Cbz-Leu-Leu-Leu-aldehyde)
cyclin E degradation in S-100 (cyclin E; no exogenous E1): block cyclin E degradation
cyclin E degradation in S-100 after addition of purified exogenous E1 (cyclin E; purified exogenous E1 added to the reaction mixture): unable to overcome the block in cyclin E degradation
